Experiment [1] deals with seventeen month old male Fischer-344 rats. The experiment is described as follows: Spatial reference memory, Morris Water Maze in aged rats. The class given is in vivo, rat. The text has this:
Working memory can also be tested using the Morris water maze. In general, the Morris water maze is a large round tub of opaque water with […] located 1-2 cm under the water's surface. The rat is placed on a start platform. The rat swims around until it finds the other platform to stand on. External cues, such as patterns or the standing researcher, are placed around the pool in the same spot every time to help the rat learn where the end platform is. The researcher measures how long it takes for a rat to find hidden platform, by changing or moving and using different spatial cues. The Morris water maze tests the spatial learning, cognitive maps and memory. The rats under the Morris water maze test may be given particular drugs or treatment conditions to see if these impair or enhance short-term memory. In one embodiment, the subject may be administered a pharmaceutical composition comprising SB 239063. The role of SB239063 on spatial memory performance was tested in the aged rat model. […] Dosing was initiated three days prior to testing and continued throughout the experiment until sacrifice (FIG. 1). Rats were tested on a maze battery including the spatial reference memory Morris maze (MM), and a delay match to sample task (DMS) where the spatial location of the platform needed to be updated on a daily basis, thereby evaluating short term memory (FIG. 2). Spatial Reference Memory—Morris Water Maze: For the Morris Water Maze, 6 trials per day for 3 days were carried out. […] Mean (±Standard Error) swim distance across all days of testing for all rats are depicted in FIG. 3.

For experiment [2], the system named is adjuvant-induced arthritis. As to conditions: 10 mg/kg, administered orally, rats; cited from earlier work.
Another experiment has as its system cultured neurons. As to conditions: cited from earlier work.
The test system of experiment [3] is seventeen month old male Fischer-344 rats. The experiment is described as follows: Working memory, Delay Match to Sample water maze in aged rats. It counts as in vivo, rat. As to conditions: high dose 30 mg/kg/day i.p. On the procedure: Other methods of evaluating spatial and visual working memory include Delayed-Match to Sample (DMS) asymmetrical 3-choice task, which is illustrated in detail in the Example section. The visible platform task was used to confirm that animals have the ability to perform the procedural components of water-escape maze testing, including the visual and motoric capacities necessary to swim towards and climb onto a platform. The role of SB239063 on spatial memory performance was tested in the aged rat model. […] Dosing was initiated three days prior to testing and continued throughout the experiment until sacrifice (FIG. 1). Rats were tested on a maze battery including the spatial reference memory Morris maze (MM), and a delay match to sample task (DMS) where the spatial location of the platform needed to be updated on a daily basis, thereby evaluating short term memory (FIG. 2). […] There was a significant Trial×Treatment Interaction in the process, and the swim distance F(5,10)=2.298 (p=0.0151). The high-dose receiving group learned the task faster, indicated by committing fewer errors compared to vehicle-only rats on trial 3 (FIG. 4B).

The next experiment relates to moderate stroke. As to conditions: oral administration of 15 mg/kg before moderate stroke; cited from earlier work.
Another experiment concerns the target β form of p38 MAPK (Homo sapiens, UniProt Q15759). The following applies: cited from earlier work.

Structures are written as SMILES.

β form of p38 MAPK, sequence (Q15759 whole entry): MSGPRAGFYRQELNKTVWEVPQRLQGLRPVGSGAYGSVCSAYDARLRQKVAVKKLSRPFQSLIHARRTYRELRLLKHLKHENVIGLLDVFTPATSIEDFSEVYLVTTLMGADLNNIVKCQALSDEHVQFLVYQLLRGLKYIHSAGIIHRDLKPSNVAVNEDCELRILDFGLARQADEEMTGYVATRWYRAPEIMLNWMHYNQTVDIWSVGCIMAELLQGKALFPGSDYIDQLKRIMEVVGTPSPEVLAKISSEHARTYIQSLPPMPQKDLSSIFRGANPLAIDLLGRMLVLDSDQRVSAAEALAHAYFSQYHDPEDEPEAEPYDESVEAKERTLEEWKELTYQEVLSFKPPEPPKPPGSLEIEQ

`COc1nccc(-c2c(-c3ccc(F)cc3)ncn2[C@H]2CC[C@H](O)CC2)n1` [SB239063, trans-1-(4-hydroxycyclohexyl)-4-(4-fluorophenyl)-5-(2-methoxypyridimidin-4-yl)imidazole]: in experiment [1] (all groups (15 and 30 mg/kg), p<0.005), the “localization to the platformed quadrant during the probe trial by the last day of testing” value is “localized to the platformed quadrant”. Moreover, the “linear trend for swim distance scores across days” value in experiment [1] (high dose 30 mg/kg daily i.p., F(1,10)=1.531, p=0.244) is “did not show a linear trend”; in experiment [1] (low dose 15 mg/kg daily i.p., F(1,10)=19.253, p=0.001), “showed a significant linear trend”. Moreover, the entries for the “Morris Water Maze spatial reference memory performance as days progressed” value in experiment [1] (high dose 30 mg/kg/day i.p.) and in experiment [1] (low dose 15 mg/kg/day i.p.) were “impaired” and “exhibited significant learning”, respectively. Besides, the “reduction of adjuvant-induced arthritis” value in experiment [2] is reported as 51%. Also, in the experiment with cultured neurons (NMDA (N-methyl D-aspartate)), the “protection against mild excitotoxic neuronal injury caused by NMDA” value is “protect against mild excitotoxic neuronal injury”. Further, in the experiment on cultured neurons (cultured neurons), the “protection against cell death induced by oxygen glucose deprivation (OGD) or magnesium deprivation” value is listed as “substantial protection against cell death”. For the same molecule, in experiment [3] (Fisher post hoc p=0.011), the “Three Choice Task errors on trial 3 compared to vehicle-only rats” value was “fewer errors”. For the same molecule, the “performance on DMS compared to vehicle-treated animals (learning of the new platform location)” value in experiment [3] (p=0.01) is given as “enhanced performance”. Besides, the “reduction of infarct volume” value in the experiment with moderate stroke was 48%. The “reduction of neurological deficits” value with moderate stroke is given as 42%. The “inhibition of β form of p38 MAPK” value on β form of p38 MAPK is recorded as “inhibits”.

These data come from patent US20120245188A1, “METHODS OF TREATING MEMORY LOSS AND ENHANCING MEMORY PERFORMANCE” (priority 2010, published 2012).
